{"source": "paper PMC8450872", "about": "(Human Reproduction (Oxford, England), 2021)", "molecular_target": "CatSper (Homo sapiens, UniProt Q7RTX7+Q86XQ3+Q8NEC5+Q96P56)", "sequence (Q96P56 whole entry)": "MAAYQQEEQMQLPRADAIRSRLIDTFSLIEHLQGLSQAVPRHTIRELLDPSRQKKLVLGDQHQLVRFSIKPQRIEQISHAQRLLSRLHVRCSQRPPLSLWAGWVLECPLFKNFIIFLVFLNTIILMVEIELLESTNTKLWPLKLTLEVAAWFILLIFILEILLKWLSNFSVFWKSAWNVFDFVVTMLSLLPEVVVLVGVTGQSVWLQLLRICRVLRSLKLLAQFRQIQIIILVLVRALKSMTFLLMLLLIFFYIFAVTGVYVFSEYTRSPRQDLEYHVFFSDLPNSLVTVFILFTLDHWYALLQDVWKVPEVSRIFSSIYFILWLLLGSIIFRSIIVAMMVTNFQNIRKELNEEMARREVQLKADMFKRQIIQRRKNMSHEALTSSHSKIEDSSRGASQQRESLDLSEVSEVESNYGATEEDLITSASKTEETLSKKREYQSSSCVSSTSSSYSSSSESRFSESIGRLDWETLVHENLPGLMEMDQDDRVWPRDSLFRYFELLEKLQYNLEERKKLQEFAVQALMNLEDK", "sequence (Q8NEC5 whole entry)": "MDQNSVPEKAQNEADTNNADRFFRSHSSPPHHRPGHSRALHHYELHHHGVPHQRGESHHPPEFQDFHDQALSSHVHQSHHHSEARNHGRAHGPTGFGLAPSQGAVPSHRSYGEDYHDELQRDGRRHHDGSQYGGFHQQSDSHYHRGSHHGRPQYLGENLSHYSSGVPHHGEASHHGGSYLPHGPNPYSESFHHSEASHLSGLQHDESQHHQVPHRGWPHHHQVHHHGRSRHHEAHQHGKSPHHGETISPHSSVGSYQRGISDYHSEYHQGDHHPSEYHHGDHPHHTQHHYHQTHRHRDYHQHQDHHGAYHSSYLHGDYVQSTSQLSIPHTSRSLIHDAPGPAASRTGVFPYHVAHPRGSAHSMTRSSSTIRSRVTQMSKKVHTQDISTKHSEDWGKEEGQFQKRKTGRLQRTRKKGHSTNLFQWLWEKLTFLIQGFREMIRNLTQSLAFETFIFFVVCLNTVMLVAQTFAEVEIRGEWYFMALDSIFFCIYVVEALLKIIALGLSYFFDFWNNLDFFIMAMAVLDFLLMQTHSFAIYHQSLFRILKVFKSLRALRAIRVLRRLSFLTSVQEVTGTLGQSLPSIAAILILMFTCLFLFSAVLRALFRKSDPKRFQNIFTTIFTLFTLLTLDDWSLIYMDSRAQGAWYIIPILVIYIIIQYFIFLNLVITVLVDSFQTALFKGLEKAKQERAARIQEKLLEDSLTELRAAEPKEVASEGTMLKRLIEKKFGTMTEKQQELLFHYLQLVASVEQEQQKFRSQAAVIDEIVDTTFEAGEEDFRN", "sequence (Q86XQ3 whole entry)": "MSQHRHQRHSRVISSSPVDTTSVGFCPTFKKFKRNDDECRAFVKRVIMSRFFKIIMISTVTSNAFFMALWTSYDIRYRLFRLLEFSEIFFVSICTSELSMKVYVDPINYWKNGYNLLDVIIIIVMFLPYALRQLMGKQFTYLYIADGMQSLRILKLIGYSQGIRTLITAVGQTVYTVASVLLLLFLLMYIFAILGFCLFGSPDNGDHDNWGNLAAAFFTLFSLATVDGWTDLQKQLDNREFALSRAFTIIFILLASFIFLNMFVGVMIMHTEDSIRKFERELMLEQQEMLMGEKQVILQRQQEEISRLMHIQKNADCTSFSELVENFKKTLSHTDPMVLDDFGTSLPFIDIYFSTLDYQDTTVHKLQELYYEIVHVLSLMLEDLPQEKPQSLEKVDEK", "sequence (Q7RTX7 whole entry)": "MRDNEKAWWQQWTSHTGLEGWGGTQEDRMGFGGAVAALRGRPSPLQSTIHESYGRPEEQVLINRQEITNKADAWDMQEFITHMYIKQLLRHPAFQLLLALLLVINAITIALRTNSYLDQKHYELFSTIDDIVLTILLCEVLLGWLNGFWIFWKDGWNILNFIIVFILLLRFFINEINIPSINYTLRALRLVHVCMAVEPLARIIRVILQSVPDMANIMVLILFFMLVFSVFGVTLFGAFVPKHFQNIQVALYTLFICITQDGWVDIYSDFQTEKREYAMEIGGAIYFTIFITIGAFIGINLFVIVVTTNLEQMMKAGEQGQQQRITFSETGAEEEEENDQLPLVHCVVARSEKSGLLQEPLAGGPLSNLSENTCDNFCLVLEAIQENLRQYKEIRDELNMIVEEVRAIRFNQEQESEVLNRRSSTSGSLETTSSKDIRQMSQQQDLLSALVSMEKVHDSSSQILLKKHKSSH", "test": "whole-cell patch clamp of human sperm", "assay_type": "cell-based"}
{"compound": "CN[C@H]1CC[C@@H](c2ccc(Cl)c(Cl)c2)c2ccccc21", "note": "[Sertraline]", "values": [{"measurement": "IC50", "value": "4.62 ± 1.18", "unit": "µM"}]}
